{"source": "paper PMC6394990", "about": "“Detailed characterization of the solution kinetics and thermodynamics of biotin, biocytin and HABA binding to avidin and streptavidin” (PLoS ONE, 2019)", "key": {"avidin (AV) [1]": {"target": "T1, avidin (AV) (Gallus gallus, UniProt P02701)", "T1 construct": "purchased Calbiochem (La Jolla, CA)", "T1 sequence (P02701 25-152)": "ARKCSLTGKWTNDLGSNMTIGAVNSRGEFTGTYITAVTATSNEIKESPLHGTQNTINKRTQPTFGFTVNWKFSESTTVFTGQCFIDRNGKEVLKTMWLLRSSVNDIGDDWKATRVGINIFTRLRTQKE", "assay": "Literature calorimetry reaction thermodynamics", "assay_type": "binding", "details": "AV-B7, average of the reported values"}, "streptavidin (SAV) [2]": {"target": "T2, streptavidin (SAV) (Streptomyces avidinii, UniProt P22629)", "T2 construct": "purchased Sigma Aldrich (St. Louis, MO)", "T2 sequence (P22629 25-183)": "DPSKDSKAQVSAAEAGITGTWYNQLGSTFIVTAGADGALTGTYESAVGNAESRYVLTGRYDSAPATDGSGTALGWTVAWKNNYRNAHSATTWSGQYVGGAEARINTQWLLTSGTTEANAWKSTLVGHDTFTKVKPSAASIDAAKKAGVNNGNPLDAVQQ", "details": "SAV-B7, cited from earlier work"}, "avidin (AV) [3]": {"target": "T1, avidin (AV)", "assay": "Relaxation kinetics of unlabeled biotin reacting with the AV-HABA complex", "assay_type": "binding", "details": "pH 8 and 23°C; read-out: konB, association rate of unlabeled B7 to the final site (AV-HABA3)", "protocol": "All of the following protein concentrations are presented on a binding site basis, thus in the case of the HABA association reactions for AV were measured at 23.0 ± 0.1°C with a concentration of 87 μM HABA and 7.7 μM AV. The AV-HABA relaxation reactions were conducted with a preformed AV-HABA complex made up of 200 μM HABA and 10 μM AV, flowed against varying amounts of B7 from 100 μM up to 4000 μM for a [HABA]/[B7] ratio that ranged from 0.05 to 2.\nThe relaxation experiments were prepared at concentrations in which HABA occupies all sites (AV-HABA4). Biotin replaces HABA relative to the koff of the dye as shown for the first step (Eq 1) and then repeated for all sites. Having greater affinity, B7 occupies all sites at the end of the reaction and the measured kon is related to the affinities of the ligand bound protein.\nThe reaction is monitored by the HABA absorbance changes at 500 nm as it is replaced by unlabeled B7; yielding the relaxation constant of the reaction (Relaxation, Eq 2) which contains information of the B7 association rate constant of the open binding site, k1AV−HABA3 to form a full saturated complex (AV-HABA4) and the dissociation rate of that full complex, k−1AV−HABA4 , to yield a complex with three HABA molecules (AV-HABA3). In the subsequent steps, B7 replaces HABA as the ligand but the release of HABA creates an unoccupied site that remains in the same state. In summary, the experiment was designed to acquire the pseudo-first order association rate constant of B7 binding ( konB ) to the solely free binding site in a complex occupied by three HABA molecules (AV-HABA3).\nThe reciprocal of the relaxation constant (1/Relaxation) is plotted vs. the [HABA]/[B] concentration ratio (Eq 3) allowing to calculate: k−1AV−HABA4 and k1AV−HABA3 by solving for the intercept ( 1/k−1AV−HABA4 ) and the respective slope: m=k1AV−HABA3/(k−1AV−HABA4∙konB) . The exponential decays were analyzed by the method of Foss. There was no departure from simple first order decay in the relaxation, justifying the use of the following model and equations."}, "streptavidin (SAV) [4]": {"target": "T2, streptavidin (SAV)", "assay": "Literature kinetics, affinity and dissociation (backward) activation parameters", "assay_type": "binding", "details": "SAV-B7, average of the reported values"}, "avidin (AV) [5]": {"target": "T1, avidin (AV)", "details": "cited from earlier work; for ΔG° ^ǂ, Backward / ΔS° ^ǂ, Backward: calculated from the plotted data; for Ea^Backward: ref 18"}, "streptavidin (SAV) [6]": {"target": "T2, streptavidin (SAV)", "assay": "Absorbance and fluorescence emission spectra, SAV complex", "assay_type": "physicochemical", "protocol": "The lifetimes (τ), steady state anisotropies (rss), time-resolved anisotropies (rt) and quantum yields (QY) of the complexes (at 20 ± 0.1°C and pH 8) were collected with a dye-labeled B7 probe concentration of 20–40 nM and 1040–2080 nM of either protein (AV or SAV) to ensure that only one binding site in the tetramer was filled with a ligand (AB1 filling model).\nThe QY values were obtained by using a reference fluorophore of known quantum yield and were calculated according to Parker and Rees, where the reference dye was fluorescein in 0.1N sodium hydroxide solution [46]. The emission fluorescence scans were collected from 480 nm to 700 nm with the excitation light set at 460 nm provided by the xenon arc lamp described above. These measurements were made on the AB1 complexes at high protein concentration.\nSupplementary file pone.0204194.s001.docx: S1 Fig Absorbance spectra of dye-labeled B7 probes and respective complexes with AV and SAV. […] The spectra are normalized to the calculated molar absorptivies. The distortion of the SAV-BFl absorbance spectrum (B panel) is caused by the presence of Fl^2- and Fl^1-. The labeled probes and protein concentrations were 1 μM and 10 μM, respectively. (DOCX) Click here for additional data file.\nSupplementary file pone.0204194.s002.docx: S2 Fig Fluorescence emission spectra of dye-labeled B7 and respective complexes with AV and SAV. […] The probe and protein concentrations were 20 nM and 1040 nM (AB1 filling model), respectively. (DOCX) Click here for additional data file."}, "[7]": {"details": "SAV complex, mono-ionic fluorescein species"}}, "note": "Several values for one entry are separate records, joined by “and”; a condition that tells them apart may be missing. Equal entries are not always repeated. Where two headings read alike, the source gives them in different places. Marks after values point to notes of the source that are not given here."}
{"molecule": "O=C(O)CCCC[C@@H]1SC[C@@H]2NC(=O)N[C@@H]21", "note": "[B7, d-biotin]", "values": [{"measurement": "ΔG°rxn, averaged value", "setting": "avidin (AV) [1]", "value": "-20.7 ± 0.3", "unit": "kcal/mol"}, {"measurement": "ΔH°rxn, averaged value", "setting": "avidin (AV) [1]", "value": "-23.2 ± 1.7^d kcal/mol and -23.2 ± 1.7 d kcal/mol"}, {"measurement": "ΔG°rxn, averaged value", "setting": "avidin (AV) [1]; listed as B", "value": "-20.7 ± 1.0", "unit": "kcal/mol"}, {"measurement": "ΔH°rxn, averaged value", "setting": "avidin (AV) [1]; listed as B", "value": "-23.2 ± 1.0", "unit": "kcal/mol"}, {"measurement": "ΔH°rxn", "setting": "streptavidin (SAV) [2]; ref 19", "value": "-26.7 19 kcal/mol"}, {"measurement": "ΔH°rxn", "setting": "streptavidin (SAV) [2]; ref 19, listed as B", "value": "-26.7 6 kcal/mol"}, {"measurement": "ΔG°rxn", "setting": "streptavidin (SAV) [2]; ref 39", "value": "-18.1 kcal/mol and -18.1 36 kcal/mol"}, {"measurement": "ΔH°rxn", "setting": "streptavidin (SAV) [2]; ref 39", "value": "-24.5 kcal/mol and -24.5 36 kcal/mol"}, {"measurement": "ΔS°rxn", "setting": "streptavidin (SAV) [2]; ref 39", "value": "-21.0 [39] cal/mol°K and -21.0 36 cal/mol°K"}, {"measurement": "ΔG°rxn", "setting": "streptavidin (SAV) [2]; ref 39, listed as B", "value": "-18.1 20 kcal/mol"}, {"measurement": "ΔH°rxn", "setting": "streptavidin (SAV) [2]; ref 39, listed as B", "value": "-24.5 20 kcal/mol"}, {"measurement": "ΔS°rxn", "setting": "streptavidin (SAV) [2]; ref 39, listed as B", "value": "-21.0 20 cal/mol°K"}, {"measurement": "ΔH°rxn", "setting": "streptavidin (SAV) [2]; ref 79", "value": "-23.0 kcal/mol and -23.0 72 kcal/mol"}, {"measurement": "ΔH°rxn", "setting": "streptavidin (SAV) [2]; ref 79, listed as B", "value": "-23.0 50 kcal/mol"}, {"measurement": "ΔH°rxn", "setting": "streptavidin (SAV) [2]; ref 80", "value": "-24.9 ± 0.4 kcal/mol and -24.9 ± 0.4 80 kcal/mol"}, {"measurement": "ΔH°rxn", "setting": "streptavidin (SAV) [2]; ref 80, listed as B", "value": "-24.9 ± 0.4 53 kcal/mol"}, {"measurement": "ΔG°rxn", "setting": "streptavidin (SAV) [2]; ref 83, 84", "value": "-18.3 kcal/mol and -18.3 83,84 kcal/mol"}, {"measurement": "ΔG°rxn", "setting": "streptavidin (SAV) [2]; ref 83, 84, listed as B", "value": "-18.3 54, 57 kcal/mol"}, {"measurement": "kon", "setting": "avidin (AV) [3]", "value": "5.3e+06 ± 9e+11", "unit": "M⁻¹ s⁻¹"}, {"measurement": "Ea^Backward, averaged value", "setting": "streptavidin (SAV) [4]", "value": "29.4 ± 2.6 kcal/mol and 29.4 kcal/mol"}, {"measurement": "ΔG° ^ǂ, Backward, averaged value", "setting": "streptavidin (SAV) [4]", "value": "23.6 ± 1.5 kcal/mol and 23.6 kcal/mol"}, {"measurement": "ΔS° ^ǂ, Backward, averaged value", "setting": "streptavidin (SAV) [4]", "value": "24.8 ± 4.5 cal/mol°K and 24.8 cal/mol°K"}, {"measurement": "ΔG° ^ǂ, Backward, averaged value", "setting": "streptavidin (SAV) [4]; listed as B", "value": "23.6 ± 1.0", "unit": "kcal/mol"}, {"measurement": "ΔS° ^ǂ, Backward, averaged value", "setting": "streptavidin (SAV) [4]; listed as B", "value": "24.8 ± 2.5", "unit": "cal/mol°K"}, {"measurement": "ΔG° ^ǂ, Backward", "setting": "avidin (AV) [5]; AV-B7", "value": "24.7 ± 2.0 [18]^e kcal/mol and 24.7 kcal/mol"}, {"measurement": "ΔS° ^ǂ, Backward", "setting": "avidin (AV) [5]; AV-B7", "value": "43.0 ± 2.0 [18]^e cal/mol°K and 43 cal/mol°K"}, {"measurement": "ΔG° ^ǂ, Backward", "setting": "avidin (AV) [5]; AV-B7, listed as B", "value": "24.7 ± 1.0 6,a kcal/mol"}, {"measurement": "ΔS° ^ǂ, Backward", "setting": "avidin (AV) [5]; AV-B7, listed as B", "value": "43.0 ± 2.0 6,a cal/mol°K"}, {"measurement": "Ea^Backward", "setting": "avidin (AV) [5]; AV-B7", "value": "37.6 ± 2.0 [18] kcal/mol and 37.6 kcal/mol"}, {"measurement": "Ea^Backward", "setting": "avidin (AV) [5]; AV-B7, listed as B", "value": "37.6 ± 1.0 6,a kcal/mol"}, {"measurement": "koff replacement", "setting": "avidin (AV) [5]; AV-B7, ref 35", "value": "9e-08", "unit": "s⁻¹"}, {"measurement": "kon", "setting": "avidin (AV) [5]; Surface Plasmon Resonance, 20°C, pH 7.4 in HEPES buffer", "value": "2.0 ± 0.3 × 10^6 M^-1s^-1"}, {"measurement": "half-life of the AV-B7 complex", "setting": "avidin (AV) [5]", "value": 90, "unit": "days"}, {"measurement": "kon", "setting": "avidin (AV) [5]; pH 5 and 25°C, 14C-biotin quenching experiment", "value": "7e+07", "unit": "M⁻¹ s⁻¹"}]}
{"molecule": "O=C(CCCC[C@@H]1SC[C@@H]2NC(=O)N[C@@H]21)NCCNC(=O)c1ccc(-c2c3ccc(=O)cc-3oc3cc(O)ccc23)c(C(=O)O)c1", "note": "[BFl, Biotin-4-fluorescein]", "values": [{"measurement": "Maximum Absorbance", "setting": "streptavidin (SAV) [6]; SAV complex, di-ionic fluorescein species", "value": 494, "unit": "nm"}, {"measurement": "Maximum Absorbance", "setting": "streptavidin (SAV) [6]; [7]", "value": 472, "unit": "nm"}, {"measurement": "Maximum Emission", "setting": "streptavidin (SAV) [6]; [7]", "value": 515, "unit": "nm"}, {"measurement": "Emission (nm)", "setting": "streptavidin (SAV) [6]; complex with SAV", "value": 524, "unit": "nm"}]}
